# Data as given in a melting point compilation (Tetko et al.; mined from patent text by program, amines drawn as free bases though some values may be those of a salt).
row,Compound,melting point [°C]
1,Cc1cc(CCC[C@H](CC(=O)OC(C)(C)C)C(=O)N[C@H](C(=O)O)C(C)(C)C)ccc1-c1ccccc1,51 to 56
2,CC1(Cn2nc(Cc3ccc(Cl)cc3)oc2=O)Cn2cc([N+](=O)[O-])nc2O1 (stereo unspecified),151 to 153
3,N#Cc1cccc(CN2CCc3sc(Nc4ncc(F)cn4)nc3-c3cn[nH]c32)c1,282 to 284
4,O=C(O)CC1Cc2ccccc2NC1=O (stereo unspecified),145 to 146
5,CCC(=O)c1cc2c(Oc3ccc(Cl)cc3)cncc2s1,101 to 102
6,CC(C)(F)C1COCc2nc3c(N)nc4cc(O)ccc4c3n21 (stereo unspecified),219 to 221
7,O=C(O)C[S@](=O)C(c1ccccc1)c1ccccc1,118 to 120
8,NNc1nc(Cl)nc2ccccc12,> 280
9,CN1CC(CCN2CCC(c3c[nH]c4ccccc34)CC2)C=C2c3cccc4[nH]cc(c34)CC21 (stereo unspecified),184 to 187
10,N#CC(c1ccnc(NCCc2c[nH]cn2)n1)c1nc2ccccc2s1 (stereo unspecified),257 to 258
11,CCOC(=O)C1=C(C)NC(C)=C(C(=O)OC)C1c1ccccc1C#N (stereo unspecified),178
12,COC(=O)c1cc(C)cc(C(C)(C)C#N)c1,53.8 to 55.9
13,COc1ccc(-c2cc(C(C)(C)C)sc2-c2ccc(OC)cc2)cc1,112 to 115
14,CCCCNC(=O)NS(=O)(=O)c1ccc(CCNC(=O)N2Cc3ccccc3C2=O)cc1,188 to 190
15,CN1CCC(C2=CC(=O)CCC2)C1=O (stereo unspecified),42 to 46
16,Cc1c(Br)cc2[nH]c(=O)c(=O)[nH]c2c1[N+](=O)[O-],> 340
17,c1ccc(COCCCCOCc2ccccc2)cc1,18
18,CC(=O)c1nn(-c2c(Cl)cc(C(F)(F)F)cc2Cl)c(N)c1S(C)=O (stereo unspecified),166
19,COc1ccc2cccc(C(=O)CNC(C)=O)c2c1,122 to 124
20,COC(=O)N1Cc2ccccc2C(c2ccccc2Cl)c2ccccc21 (stereo unspecified),159 to 161
21,CC(C)(CO)CNS(=O)(=O)c1ccc(NC=C2C(=O)Nc3ccc4ncsc4c32)cc1,> 250
22,Nc1nc2c(Oc3cc(-c4ccc(C(F)(F)F)cc4)ncn3)cccc2s1,232 to 234
23,O=C(O)c1cc(=O)c(OCc2ccccc2)c(-c2ccccc2)o1,161 to 170
24,CCCCC1Cc2c(c3cccnc3n(-c3ccccc3)c2=O)O1 (stereo unspecified),179 to 180
25,OCCn1ccccc1=S,95 to 97
26,CC(CN1CCCC1)N1c2ccccc2Sc2ccc(C(=O)NC3CCCC3)cc21 (racemic),132

row,Compound,melting point [°C]
1,Cc1nc(N2CCN(Cc3ccc(F)cc3)C2=O)sc1C(=O)NCc1ccc(C(F)F)o1,173 to 174
2,CCCCn1c(=O)cn[nH]c1=O,135
3,O=C(NCCc1cccs1)C1CC2C=CC1C2 (stereo unspecified),71 to 72
4,COc1ccccc1N1CCN(CNC(=O)c2cccc(C)c2)CC1,139 to 142
5,C#CCOCC(=O)Nc1ccccc1,142 to 145
6,Nc1ccccc1C(O)C1CC1 (stereo unspecified),76 to 79
7,Cc1oc(-c2ccc3ccccc3c2)nc1/C=C/c1ccc(CO)cc1,173 to 174
8,C[C@@H]1Cc2cc3c(cc2C(c2ccc([N+](=O)[O-])c(Cl)c2)=NN1C(=S)NN)OCO3,126 to 127
9,CC1(c2cc(N3C(=O)C4=C(CCCC4)C3=O)c(F)cc2Cl)OCCO1,147
10,C=CCC(=NO)C(C)=NNc1c(Cl)cc(C(F)(F)F)cc1Cl,71 to 73
11,CCOC(=O)C1=C(C)NC(=S)N(C(=O)OCC)C1c1ccccc1OCc1ccccc1 (stereo unspecified),153 to 155
12,OCC(CCc1ccc(Cl)cc1)Cn1cncn1 (stereo unspecified),40 to 45
13,OCCCc1nc(-c2ccccc2)co1,55 to 56
14,CC(C)(C)NC(=O)[C@@H]1C[C@H](O)CN1C(=O)[C@@H](O)[C@H](Cc1ccccc1)NC(=O)[C@H](CC(N)=O)NC(=O)OCc1ccccc1,113 to 115
15,CC(C)(C)c1ccc(-c2ccc(-c3ccc(Br)s3)s2)cc1,132 to 136
16,O=C(c1ccccc1)C(O)C1OC(n2cnc3c(NC4CCCc5ccccc54)ncnc32)C(O)C1O (stereo unspecified),107 to 112
17,O=c1cc2c(nn1-c1ccc(Cl)cc1F)CCCC2,104 to 108
18,Cc1cc(C)c2nc(C(=O)O)cc(-c3ccccc3Cl)c2c1,234 to 235
19,CCCCCc1c(C(C)C)nc(C(C)C)c(CCO)c1-c1ccc(F)cc1,81 to 83
20,N#Cc1cccc2c(-c3ccccc3)coc12,143 to 145
21,CCn1c2ccc(C=O)cc2c2ccc3ccccc3c21,135 to 140
22,COc1ccc(CNc2ccc(C#N)cc2)cc1F,108
23,CC(=O)NC(Cc1ccc([N+](=O)[O-])cc1)C(=O)O (stereo unspecified),165 to 166
24,C[Si](C)(C)CCCCCCCNC(=O)n1cc(F)c(=O)[nH]c1=O,118 to 119
25,O=P(O)(O)Cc1ccccc1CP(=O)(O)O,> 300
